Measurements published in article PMC12903969, “Discovery of a Novel and Potent Kir4.1 Inhibitor as a Safe and Rapid‐Onset Antidepressant Agent in Mice” (Advanced Science, 2025).
“And” between values parts separate entries of the source, which are not always exact repeats. Equal values may be shown once. Read-outs that look alike come from different tables or passages of the source.

Columns and labels:
Kir2.1 = molecular target: T1, Kir2.1 (Homo sapiens, UniProt P63252); assay: Whole-cell patch clamp, Kir2.1; format: cell-based
T1 construct: host or cells: CHO-K1
T1 sequence (P63252 1-427): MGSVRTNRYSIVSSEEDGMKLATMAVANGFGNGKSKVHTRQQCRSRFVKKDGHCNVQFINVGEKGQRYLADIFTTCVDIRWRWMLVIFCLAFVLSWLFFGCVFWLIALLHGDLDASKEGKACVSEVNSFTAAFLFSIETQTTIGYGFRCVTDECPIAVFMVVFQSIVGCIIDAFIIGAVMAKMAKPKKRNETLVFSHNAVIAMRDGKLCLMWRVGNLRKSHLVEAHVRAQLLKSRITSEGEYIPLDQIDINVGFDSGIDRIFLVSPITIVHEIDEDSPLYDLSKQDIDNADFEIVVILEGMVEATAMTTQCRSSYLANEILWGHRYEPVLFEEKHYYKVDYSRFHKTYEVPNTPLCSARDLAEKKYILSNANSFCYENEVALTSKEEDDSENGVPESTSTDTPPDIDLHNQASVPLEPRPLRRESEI
Method: (§1) Plasmids encoding WT human potassium channels Kir1.1, Kir2.1, Kir2.2, Kir4.1, and Kir4.2 were obtained from the Beijing Genomics Institute. All point mutations were constructed using the QuickChange II Site‐Directed Mutagenesis Kit (Stratagene) and subsequently verified by sequencing.
(§2) CHO‐K1 cells were maintained in DMEM/F12 growth medium containing 10% fetal bovine serum. Plasmids encoding the target genes (3600 ng) and enhanced green fluorescent protein (400 ng) were cotransfected into cells using Lipofectamine 2000 (Invitrogen) in accordance with the manufacturer's instructions. Cells were seeded onto poly‐d‐lysine (PDL)‐coated glass coverslips 1 h prior to electrophysiological recordings. All cells were cultured under standard conditions of 5% CO2 at 37 °C.
(§3) Whole‐cell patch‐clamp recordings were obtained either in transiently transfected CHO‐K1 cells or in primary cultured astrocytes at room temperature using standard patch‐clamp techniques with an Axopatch‐700B amplifier (Axon Instruments). The signals were filtered at 2 kHz and sampled at 20 kHz using the Digidata 1440A interface (Axon Instruments). The resistance of borosilicate glass pipettes was typically 2–4 MΩ when filled with the internal solution. Drug application was facilitated using a BPS perfusion system (ALA Scientific Instruments). Macroscopic currents generated by expressed potassium channels were recorded under the voltage‐clamp conditions with an internal pipette solution composed of (in mM): 140 KCl, 5 NaCl, 1 CaCl2, 1 MgCl2, 10 HEPES, and 10 EGTA, pH 7.2 adjusted with KOH. The external solution contained (in mM): 140 NaCl, 5 KCl, 2 CaCl2, 1 MgCl2, 10 glucose, and 10 HEPES, pH 7.4 adjusted with NaOH. Currents were elicited with a hyperpolarized voltage at −120 mV from the holding potential of −80 mV, followed by a ramp voltage depolarizing to +50 mV. Astrocytic resting membrane potentials were recorded under current‐clamp conditions (I = 0 pA) using standard internal and external solutions, determined immediately after achieving whole‐cell mode.

Kir4.2 = molecular target: T2, Kir4.2 (Homo sapiens, UniProt Q99712); assay: Whole-cell patch clamp, Kir4.2; format: cell-based
T2 construct: host or cells: CHO-K1
T2 sequence (Q99712 1-375): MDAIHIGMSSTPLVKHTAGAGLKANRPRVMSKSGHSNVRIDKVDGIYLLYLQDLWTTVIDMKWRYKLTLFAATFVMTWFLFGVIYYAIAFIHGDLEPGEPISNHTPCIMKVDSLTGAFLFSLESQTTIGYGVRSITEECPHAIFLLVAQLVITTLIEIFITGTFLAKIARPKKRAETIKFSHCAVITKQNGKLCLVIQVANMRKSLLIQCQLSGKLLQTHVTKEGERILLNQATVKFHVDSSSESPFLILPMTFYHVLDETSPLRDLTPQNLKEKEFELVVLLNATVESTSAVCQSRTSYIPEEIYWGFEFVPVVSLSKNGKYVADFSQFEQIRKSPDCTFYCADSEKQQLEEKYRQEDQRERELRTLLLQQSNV
Method: as §1, §2, §3

Kir4.1 E158N = molecular target: T3, Kir4.1 E158N (Homo sapiens, UniProt P78508, E158N); assay: Whole-cell patch clamp, Kir4.1 point mutant E158N; format: cell-based
T3 construct: expressed in transfected cells; host or cells: CHO-K1
T3 sequence (P78508 1-379 E158N): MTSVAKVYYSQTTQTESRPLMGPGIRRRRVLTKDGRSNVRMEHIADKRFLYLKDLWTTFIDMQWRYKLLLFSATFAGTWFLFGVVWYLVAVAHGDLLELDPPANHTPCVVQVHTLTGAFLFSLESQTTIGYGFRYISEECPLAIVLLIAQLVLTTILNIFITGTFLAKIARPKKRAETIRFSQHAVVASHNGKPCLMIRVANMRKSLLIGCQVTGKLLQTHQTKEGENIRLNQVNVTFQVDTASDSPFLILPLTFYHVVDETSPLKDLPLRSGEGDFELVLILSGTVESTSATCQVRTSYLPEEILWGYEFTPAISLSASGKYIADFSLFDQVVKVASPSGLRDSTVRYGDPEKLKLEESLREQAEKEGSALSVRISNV
Method: as §1, §2, §3

mice = assay: Acute forced swim test (FST); format: in vivo; settings: 30 and 60 mg kg−1
Method: Mice were placed individually in a transparent glass cylinder (25 cm high, 10 cm wide) filled with water (temperature 23–25 °C) to a depth of 10 cm, and prevented from making contact with the bottom. Mice behaviors were videotaped from each side. The observation period lasted for 6 min, with the final 4 min used to measure immobile behavior, which was processed using the AnyMaze Tracking System (Stoelting).

[1] = test system: primary cortical astrocytes (native Kir4.1 channels); assay: Patch clamp of primary cultured WT astrocytes (native Kir4.1); format: cell-based, mouse
Method: Astrocytes were isolated and cultured as previously described.^[ [16] ^] Briefly, the cortices from P1‐P4 mouse pups were dissected and incubated for 25 min in Hank's Balanced Salt Solution (22.5 ml) with 2.5% trypsin (2.5 ml) at 37 °C. Cells were dissociated in cultured medium (DMEM/F12 supplemented with 10% fetal bovine serum and 1% penicillin and streptomycin) and filtered with a 70‐µm cell strainer. Cell suspensions were cultured in PDL‐pretreated 75‐cm^2 flasks for the initial seven days, with half of the medium replaced every 2 days. Subsequently, the cultures were shaken at 220 rpm for 6 h at 37 °C to remove microglia and oligodendrocytes from the astrocyte layers. The astrocytes were harvested, reseeded in two new flasks, and cultured in an incubator for 14 days. For Kir4.1 deletion in cell cultures, 4‐OH tamoxifen (final concentration: 1 µM, Felixbio) was added into Kir4.1^flox/flox: Aldh1l1‐Cre/ERT2 cortical cultures at DIV 2 and DIV 4, respectively, and completely removed at DIV7 when astrocytes were reseeded in fresh culture medium.
as §3

## c1ccc2c(c1)oc1ccc(Nc3ccnc(NCCCN4CCOCC4)n3)cc12 [JX3212, N^4-(dibenzo[b,d]furan-2-yl)-N^2-(3-morpholinopropyl)pyrimidine-2,4-diamine]
Kir2.1; 3 µM, mean ± SEM, read-out: inhibition of Kir2.1
  inhibition at 3 µM: 49.9 ± 4.35%
Kir2.1; JX3212 3 µM (Fig 2A)
  Kir isoforms: Kir2.1 inhibition, single recordings: 46.776 and 54.8667
Kir2.1; JX3212 3 µM (Fig 2A), read-out: Kir isoforms: Kir2.1 inhibition, single recordings
  inhibition at 3 µM: 48.1%
Kir4.2; 3 µM, mean ± SEM
  Kir4.2 blockade: 86.57 ± 10.51%
Kir4.2; JX3212 3 µM (Fig 2A)
  Kir isoforms: Kir4.2 inhibition, single recordings: 93.8526 and 74.5275
Kir4.2; JX3212 3 µM (Fig 2A), read-out: Kir isoforms: Kir4.2 inhibition, single recordings
  inhibition at 3 µM: 91.3%
Kir4.1 E158N; 3 µM, mean ± SEM, read-out: current inhibition, Kir4.1 E158N
  inhibition at 3 µM: 29.4 ± 2.66%
Kir4.1 E158N; JX3212 3 µM (Fig 2D)
  Mutation: E158N inhibition, single recordings: 26.6694 and 31.4659 and 31.9554
Kir4.1 E158N; JX3212 3 µM (Fig 2D), read-out: Mutation: E158N inhibition, single recordings
  inhibition at 3 µM: 27.7%
mice
  immobility time in acute FST (in words): significantly reducing immobility time
[1]; JX3212 3 µM, BaCl2 100 µM
  astrocytic resting membrane potential (in words): marked depolarization
[1]; WT astrocytes, 3 µM
  astrocytic macroscopic slope conductance (in words): partially impaired the macroscopic slope conductance
  astrocytic potassium currents (in words): notably decreased potassium currents
